From US20080125409A1, “1,5-Diheterocycle-1H-Triazole Derivative” (DAIICHI PHARMACEUTICAL CO., LTD., priority 2004, published 2008) come the findings set out here.

The test system of experiment [1] is platelet-rich plasma (PRP), collagen-induced platelet aggregation. The experiment can be described thus: Collagen-stimulated platelet aggregation inhibition in human platelet-rich plasma. It is filed as cell-based. As to conditions: 2 min, 2 min at 37° C. with compound. As to the method: Platelet Aggregation Suppressing Action
Human blood was collected using a 3.13% solution of sodium citrate as an anticoagulant, in a volume 1/10 of the blood volume, and was centrifuged at 180 g for 10 minutes to separate platelet-rich plasma (PRP) from the blood. The PRP in the upper layer was isolated, and then the lower layer was centrifuged at 1600 g for 10 minutes to isolate the platelet-poor plasma (PPP) in the upper layer. 1 μL of a solution of the compound of the Examples) was added to 200 μL of the PRP, and the mixture was allowed to stand for 2 minutes at 37° C. Then, 2 μL of collagen was added thereto, so as to induce platelet aggregation. The rate of platelet aggregation was measured using a PAM-12C (SSR Engineering). By taking the light transmittance of the PPP as the value indicating 100% aggregation, the rates of platelet aggregation at various concentrations of the compound of the Examples were determined, and the IC50 value was calculated.

The target of another experiment is T1, COX-1 (Ovis aries, UniProt P05979).
T1 construct: purchased Cayman Chemical Company 560101 and 560121
T1 sequence (P05979 25-600): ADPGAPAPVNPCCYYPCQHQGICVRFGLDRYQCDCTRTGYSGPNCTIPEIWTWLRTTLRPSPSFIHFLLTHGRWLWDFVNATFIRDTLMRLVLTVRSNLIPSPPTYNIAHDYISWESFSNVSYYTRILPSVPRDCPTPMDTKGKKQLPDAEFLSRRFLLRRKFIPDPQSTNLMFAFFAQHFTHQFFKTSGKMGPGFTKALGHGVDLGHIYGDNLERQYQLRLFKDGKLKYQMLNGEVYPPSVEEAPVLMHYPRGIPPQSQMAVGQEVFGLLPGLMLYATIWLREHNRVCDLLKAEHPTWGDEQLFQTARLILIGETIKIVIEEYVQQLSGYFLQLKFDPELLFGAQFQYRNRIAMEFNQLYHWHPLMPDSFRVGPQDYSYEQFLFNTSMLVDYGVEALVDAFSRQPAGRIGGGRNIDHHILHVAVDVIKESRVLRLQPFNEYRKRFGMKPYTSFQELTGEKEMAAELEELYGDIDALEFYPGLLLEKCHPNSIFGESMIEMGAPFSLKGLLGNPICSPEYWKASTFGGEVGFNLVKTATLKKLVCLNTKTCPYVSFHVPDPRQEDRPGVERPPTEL
The experiment can be described thus: Cyclooxygenase-1 (COX-1) inhibitory effect (Cayman COX Inhibitor Screening Assay Kit, PGF2α ELISA). As to conditions: in the presence of 50 μM of the compound; PGF2α production without compound regarded as 100%; read-out: COX inhibitory activity COX-1 (rate of COX-1 inhibition). It is filed as biochemical. The source says:
Cyclooxygenase-1 (COX-1) Inhibitory Effect
For the measurement of the COX-1 inhibitory activity of the compound of the Examples, a COX Inhibitor Screening Assay Kit manufactured by Cayman Chemical Company (Catalog Nos. 560101 and 560121) was used.
Before starting the measurement, a reaction buffer, heme, arachidonic acid, SnCl2, EIA buffer, a washing buffer, prostaglandin (PG)-screening EIA standard solution, PG-screening acetylcholinesterase (AchE), a tracer […], and PG-screening EIA antiserum were provided.
(1) Production of PGF2α by COX-1
A reaction solution containing the compound of the Examples (50 μM) and COX-1 was allowed to stand at 37° C. for 10 minutes, then 10 μl of arachidonic acid was added thereto, and the resultant mixture was allowed to stand at 37° C. for 2 minutes. After the reaction, 50 μl of 1 N hydrochloric acid was added to the reaction mixture to thereby stop the reaction, and 100 μl of a SnCl2 solution was added thereto. The resultant mixture was allowed to stand at room temperature for 5 minutes.
(2) Quantification of PGF2α by ELISA
50 μl of antiserum (rabbit anti-PGF2α antibody) was added to each of the wells of a 96-well plate coated with mouse anti-rabbit IgG. Then, 50 μl of a solution prepared by diluting the aforementioned reaction solution for the production of PGF2α to 2000-folds, and 50 μl of an AchE tracer were added sequentially to the wells, and the plate was allowed to stand at room temperature for 18 hours. Each well was washed 5 times with the washing buffer to remove excessive AchE tracer, and then 200 μl of Ellman reagent was added to each well. The plate was kept in a dark room for 60 minutes, and then, absorbance at 405 nm was measured.
(3) Calculation of Inhibitory Activity of the Compound of the Examples
A standard curve was produced using a PG-screening EIA standard solution, and the amount of PGF2α production was determined from the absorbance obtained in the above. The rate of COX-1 inhibition in the presence of 50 μM of the compound of the Examples was calculated.
A general note: ELISA stands for enzyme-linked immunosorbent assay.

Molecules are shown by their SMILES.

On to `COc1ccc(-n2nc(C(=O)NC(C)(C)C)nc2-c2ccccn2)cn1` [Example 1, N-tert-Butyl-1-(6-methoxy-3-pyridyl)-5-(2-pyridyl)-1H-1,2,4-triazole-3-carboxamide], for which, in experiment [1], the IC50 (commonly the concentration needed to halve the response being measured) is 0.04 µM. The inhibition – broadly, the relative decrease from the control value, in per cent – at 50 µM at COX-1 amounted to 7.5%.

As for `COc1ccc(-n2nc(C(=O)NC(C)(C)C)nc2-c2ccc(C#N)cn2)cn1` [Example 3, N-tert-Butyl-5-(5-cyano-2-pyridyl)-1-(6-methoxy-3-pyridyl)-1H-1,2,4-triazole-3-carboxamide], in experiment [1], the IC50 was determined as 0.16 µM. Further, the inhibition at 50 µM on COX-1 was determined as 19.5%.

For `COc1ccc(-n2nc(C(=O)NC(C)(C)C)nc2-c2cnc(C)cn2)cn1` [Example 6, N-tert-Butyl-1-(6-methoxy-3-pyridyl)-5-(5-methyl-2-pyrazinyl)-1H-1,2,4-triazole-3-carboxamide], the IC50 in experiment [1] came to 0.17 µM. Moreover, at COX-1, the inhibition at 50 µM was -15.8%.

With `COc1ccc(-n2nc(C(=O)NC(C)(C)C)nc2-c2ccc(Cl)cn2)cn1` [Example 11, N-tert-Butyl-5-(5-chloro-2-pyridyl)-1-(6-methoxy-3-pyridyl)-1H-1,2,4-triazole-3-carboxamide], the IC50 in experiment [1] is 0.088 µM.

`COc1ccc(-n2nc(C(=O)NC(C)(C)C)nc2-c2ccc(N)cn2)cn1` [Example 14, 5-(5-Amino-2-pyridyl)-1-(6-methoxy-3-pyridyl)-1H-1,2,4-triazole-3-carboxylic acid N-tert-butylamide]: in experiment [1], the IC50 is 0.13 µM.

With `COc1ccc(-n2nc(C(=O)NCC(C)(C)C)nc2-c2ccc(C)cn2)cn1` [Example 18, 1-(6-Methoxy-3-pyridyl)-5-(5-methyl-2-pyridyl)-1H-1,2,4-triazole-3-carboxylic acid N-neopentylamide], the 50% inhibitory concentration (IC50) in experiment [1] is 0.013 µM.

Regarding `COc1ccc(-n2nc(C(=O)NC(C)C)nc2-c2ccccn2)cn1` [Example 22, N-isoPropyl-1-(6-methoxy-3-pyridyl)-5-(2-pyridyl)-1H-1,2,4-triazole-3-carboxamide], in experiment [1], the IC50 was 0.53 µM.

For `COc1ccc(-n2nc(C(=O)N3CCN(C)CC3)nc2-c2ccc(C)cn2)cn1` [Example 29, 1-[1-(6-Methoxy-3-pyridyl)-5-(5-methyl-2-pyridyl)-1H-1,2,4-triazole-3-carbonyl]-4-methylpiperazine], the IC50 in experiment [1] is 0.22 µM. For the same compound, at COX-1, the inhibition at 50 µM was -23.1%.

As to `Cc1ccc(-c2nc(C(=O)NC(C)(C)C)nn2-c2ccc(C)nc2)nc1` [Example 35, N-tert-Butyl-1-(6-methyl-3-pyridyl)-5-(5-methyl-2-pyridyl)-1H-1,2,4-triazole-3-carboxamide], in experiment [1], the IC50 worked out at 0.12 µM. Moreover, the inhibition at 50 µM at COX-1 was -17.2%.

For the compound `COc1ccc(-n2nc(C(=O)N3CCC[C@H]3CF)nc2-c2ccc(C)cn2)cn1` [Example 37, (2S)-1-[1-(6-Methoxy-3-pyridyl)-5-(5-methyl-2-pyridyl)-1H-1,2,4-triazole-3-carbonyl]-2-fluoromethylpyrrolidine], the IC50 in experiment [1] is 0.016 µM. Also, at COX-1, the inhibition at 50 µM was found to be 6.6%.

Consider `COc1ccc(-n2nc(C(=O)N3CCOCC3)nc2-c2ccc(C)cn2)cn1` [Example 38, 4-[1-(6-Methoxy-3-pyridyl)-5-(5-methyl-2-pyridyl)-1H-1,2,4-triazole-3-carbonyl]morpholine], for which, in experiment [1], the IC50 turned out to be 0.25 µM. Moreover, on COX-1, the inhibition at 50 µM is 0.9%.

For `COc1ccc(-n2nc(C(=O)N3CCC(F)(F)CC3)nc2-c2ccc(CO)cn2)cn1` [Example 41, 1-[5-(5-Hydroxymethyl-2-pyridyl)-1-(6-methoxy-3-pyridyl)-1H-1,2,4-triazole-3-carbonyl]-4,4-difluoropiperidine], the IC50 in experiment [1] was 0.22 µM. At COX-1, the inhibition at 50 µM was 4.6%.

As for `COc1ccc(-n2nc(C(=O)NC3(C)CC3)nc2-c2ccc(C)cn2)cn1` [Example 44, N-(1-Methylcyclopropyl)-1-(6-methoxy-3-pyridyl)-5-(5-methyl-2-pyridyl)-1H-1,2,4-triazole-3-carboxamide], in experiment [1], the IC50 was found to be 0.22 µM.
